Measured values published in publication PMC6364417, “Kinase inhibitor library screening identifies synergistic drug combinations effective in sensitive and resistant melanoma cells” (Journal of Experimental & Clinical Cancer Research : CR, 2019).

Assays:
[1] = tested on: A375 parental cells expressing iRFP; experiment: Long-term inhibitor treatment, iRFP fluorescence proliferation monitoring; assay type: cell-based, human
Description: A375 parental and BRAFi-resistant cells, virally transduced with the near-infrared fluorescent protein (iRFP) were seeded at a density of 2500 cells/well in a 24-well plate (Greiner) in at least technical triplicates. Inhibitors, single or in combination, were added at the indicated amounts and replenished every 72 h for a duration of 76 days. To assess whether any remaining cells have become resistant to the treatment and would re-emerge, the drugs were removed and the cells underwent “drug holidays” for an additional 21 days. During the long-term treatment, cell proliferation was monitored bi-weekly on a LI-COR Odyssey Infrared Imaging System (LI-COR Biosciences). Fluorescence intensity was quantified with the Image Studio™ Lite software (LI-COR Biosciences).

A375 cells (parental) [2] = experiment: Dose-response curves and IC50, PrestoBlue cell viability, 72 h; assay type: cell-based, human; details: Homo sapiens, A-375, n.e. = did not suppress growth below 50% in the tested concentration range, read-out: Half-maximal inhibitory concentration value (IC50), Mean
[3] = tested on: A375-XP cells (Vemurafenib-resistant); experiment: as above; assay type: cell-based, human; details: Homo sapiens, n.e. = did not suppress growth below 50% in the tested concentration range, read-out: Half-maximal inhibitory concentration value (IC50), Mean
melanoma tumors = details: cited from earlier work
[4] = tested on: A375-GP cells (Dabrafenib-resistant); experiment: Dose-response curves and IC50, PrestoBlue cell viability, 72 h; assay type: cell-based, human; details: Homo sapiens, n.e. = did not suppress growth below 50% in the tested concentration range, read-out: Half-maximal inhibitory concentration value (IC50), Mean
A375 cells = experiment: Synergy determination with the Chou-Talalay method (CompuSyn), cell viability 72 h; assay type: cell-based, human; details: 72 h cell viability, Chou-Talalay / Synergyfinder
[5] = tested on: NHDF (normal human dermal fibroblasts); experiment: Dose-response curves and IC50 in non-cancer cells, cell viability, 72 h; details: for IC50: Homo sapiens, NHDF, read-out: Half-maximal inhibitory concentration (IC50), NHDF Mean
Description: (§1) The IC50 values (nM) were calculated as indicated in Methods.

[6] = tested on: IGR37-GP cells (Dabrafenib-resistant); experiment: Dose-response curves and IC50, PrestoBlue cell viability, 72 h; details: Homo sapiens, 72 h, read-out: Half-maximal inhibitory concentration (IC50)
[7] = tested on: A375 cells (parental sensitive) tumors; experiment: In vivo assay, subcutaneous melanoma tumors in NSG mice; set-up: species or system NOD scid gamma (NSG) mice; details: NSG mice with A375 or A375-XP tumors, 8 days of daily treatment
Description: NOD scid gamma (NSG) mice were bred in-house and experiments were performed according to all applicable laws and regulations, after receiving approval by the institution’s animal experimentation ethics committee and the veterinarian service of the Ministry of Agriculture (Permit Number: 18-MDM-01). Single parental sensitive A375 cells (0.5 × 10^6 cells) and Vemurafenib-resistant A375-XP cells (2 × 10^6 cells) were resuspended in 100 μL of 1:1 mixed serum-free medium and matrigel (BD Biosciences) and injected subcutaneously in 6–8 week-old mice. […] Control mice received the respective vehicle by oral gavage and intraperitoneal injection. […] Statistical analysis was done using a two-way ANOVA followed by post-hoc Tukey’s multiple comparison tests.

[8] = tested on: 501Mel-GP cells (Dabrafenib-resistant); experiment: Dose-response curves and IC50, PrestoBlue cell viability, 72 h; details: Homo sapiens, 72 h, read-out: Half-maximal inhibitory concentration (IC50)
Description: (§2) All inhibitors used in this study were purchased from Selleck Chemicals (Houston, USA). They were dissolved in DMSO to a stock concentration of 10 mM according to the manufacturer’s instructions and stored at − 80 °C. […] Cell viability was measured with the PrestoBlue Cell Viability Reagent (ThermoFisher Scientific) on a CLARIOstar Monochromator microplate reader (BMG Labtech). Using the GraphPad Prism v5.04 software, the half-maximal inhibitor concentration values (IC50) were determined from the curve using the nonlinear log (inhibitor) vs response-variable slope (four parameters) equation. […] The IC50’s were determined for 3 biological replicates and are listed with their standard deviations.

[9] = tested on: IGR37-XP cells (Vemurafenib-resistant); experiment: as above; details: Homo sapiens, 72 h, read-out: Half-maximal inhibitory concentration (IC50)
Description: as §2
(§3) Values represent the mean of at least three biological replicates; one representative curve of at least 3 biological replicates is depicted. _XP: cells resistant to Vemurafenib (red), _GP: cells resistant to Dabrafenib (green).

IGR37 cells (parental) [10] = experiment: as above; details: Homo sapiens, IGR-37, 72 h, read-out: Half-maximal inhibitory concentration (IC50)
Description: as §2, §3

[11] = tested on: 501Mel-XP cells (Vemurafenib-resistant); experiment: as above; details: Homo sapiens, 72 h, read-out: Half-maximal inhibitory concentration (IC50)
Description: as §2, §3

PARP cleavage = experiment: Western blot, PARP cleavage in A375 cells; assay type: cell-based, human; details: A375, A375-XP, A375-GP; 24 h treatment
Description: (§4) Cells were seeded at a density of 10^5 cells/well in 24-well plates (Greiner). 24 h post seeding, cells were treated with inhibitors at indicated amounts for 3 h and/or 24 h. […] The following primary antibodies were used: anti-phospho-CHK1 (Ser317) (Cell Signalling Technology, 1:1000), anti-CHK1 (Cell Signalling Technology, 1:1000), anti-phospho-cdc2 (Tyr15) (Cell Signalling Technology, 1:1000), anti-cdc2 (Cell Signalling Technology, 1:1000), anti-PARP (Cell Signalling Technology, 1:1000), anti-cleaved-PARP (Cell Signalling Technology, 1:1000), anti-phospho-Erk (Tyr202/Tyr204) (Cell Signalling Technology, 1:2000), anti-Erk1/2 (Santa Cruz, Erk1 = 1:1000, Erk2 = 1:2000), anti-phospho-Akt (Ser473) (Cell Signalling Technology, 1:1500), anti-Akt1/2 (Santa Cruz, 1:1000), anti-Vinculin (Abcam, 1:1000) and anti-Tubulin (Santa Cruz, 1:5000). HRP-labeled secondary antibodies were purchased from Cell Signaling Technology (Boston, MA).

501Mel cells (parental) [12] = experiment: Dose-response curves and IC50, PrestoBlue cell viability, 72 h; details: Homo sapiens, 72 h, read-out: Half-maximal inhibitory concentration (IC50)
Description: as §2, §3

IGR37 cells (parental) [13] = experiment: Kinase inhibitor library screening, PrestoBlue cell viability, 1 or 10 μM, 72 h; details: IGR37 Parental, in %
501Mel cells (parental) [14] = experiment: as above; details: 501Mel Parental, in %
Outline: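 Treatment: 72 h with inhibitor. Detection: PrestoBlue, plate reader. Output: viability as % untreated control. Replicates: duplicate minimum. Lines: parental plus Vemurafenib- or Dabrafenib-resistant derivatives.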

[15] = tested on: IGR37-XP cells (Vemurafenib-resistant); experiment: as above; details: IGR37 XP, in %
[16] = tested on: A375-XP cells (Vemurafenib-resistant); experiment: as above; details: A375 XP, in %
[17] = tested on: IGR37-GP cells (Dabrafenib-resistant); experiment: as above; details: IGR37 GP, in %
[18] = tested on: A375-GP cells (Dabrafenib-resistant); experiment: as above; details: A375 GP, in %
[19] = tested on: 501Mel-XP cells (Vemurafenib-resistant); experiment: as above; details: 501Mel XP, in %
A375 cells (parental) [20] = experiment: as above; details: A375 Parental, in %
[21] = tested on: 501Mel-GP cells (Dabrafenib-resistant); experiment: as above; details: 501Mel GP, in %
[22] = tested on: Tyr15 phosphorylation of CDK1 (P-cdc2); experiment: Western blot, phospho-cdc2 (Tyr15); assay type: cell-based, human; details: parental and resistant A375 cells, 3 h treatment
Description: as §4

[23] = tested on: NHEM (normal human epidermal melanocytes); experiment: Dose-response curves and IC50 in non-cancer cells, cell viability, 72 h
Description: as §1

melanoma cell lines = details: several other melanoma cell lines; cited from earlier work

Compound: CC[C@@H]1C(=O)N(C)c2cnc(Nc3ccc(C(=O)N[C@H]4CC[C@H](N5CCN(CC6CC6)CC5)CC4)cc3OC)nc2N1C(C)C [Volasertib]
- regrowth after removal of drugs (after day 76, by day 97) (in words) [1]: had started to grow back
- long-term cell growth under drug until day 76 (in words) ([1]; 40 nM (also 20 nM, data not shown)): killed all cells
- IC50 (A375 cells (parental) [2]): 21 nM
- IC50 [3]: 21 nM
- effect on melanoma tumors in vivo (in words) (melanoma tumors): delay growth of melanoma tumors and to cause regression by inducing apoptosis in vivo
- IC50 [4]: 15 nM
- synergistic effects with the BRAF inhibitors Vemurafenib and/or Dabrafenib (in words) (A375 cells): synergistic effects only with Dabrafenib
- IC50 [5]: 75 nM

Compound: C=CCn1c(=O)c2cnc(Nc3ccc(N4CCN(C)CC4)cc3)nc2n1-c1cccc(C(C)(C)O)n1 [MK-1775, reference compound]
- IC50 [6]: 289 nM
- body weight and side effects during treatment (in words) [7]: did not lose weight
- IC50 [8]: 289 nM
- IC50 [9]: 201 nM
- IC50 (IGR37 cells (parental) [10]): 286 nM
- IC50 [11]: 220 nM
- IC50 (A375 cells (parental) [2]): 388 nM
- IC50 [3]: 809 nM
- IC50 [4]: 325 nM
- Cleavage of PARP (in words) (PARP cleavage): induced
- synergistic effects with the BRAF inhibitors Vemurafenib and/or Dabrafenib (in words) (A375 cells): clear synergistic effects
- IC50 (501Mel cells (parental) [12]): 257 nM
- cell viability (kinase inhibitor library screening) (IGR37 cells (parental) [13]; 1μΜ): 20.4
- cell viability (kinase inhibitor library screening) (IGR37 cells (parental) [13]; 10μΜ): 9.8
- cell viability (kinase inhibitor library screening) (501Mel cells (parental) [14]; 1μΜ): 35.1
- cell viability (kinase inhibitor library screening) (501Mel cells (parental) [14]; 10μΜ): 24.2
- cell viability (kinase inhibitor library screening) ([15]; 1μΜ): 45.0
- cell viability (kinase inhibitor library screening) ([15]; 10μΜ): 36.2
- cell viability (kinase inhibitor library screening) ([16]; 1μΜ): 43.8
- cell viability (kinase inhibitor library screening) ([16]; 10μΜ): 8.7
- cell viability (kinase inhibitor library screening) ([17]; 1μΜ): 46.6
- cell viability (kinase inhibitor library screening) ([17]; 10μΜ): 41.7
- cell viability (kinase inhibitor library screening) ([18]; 1μΜ): 17.5
- cell viability (kinase inhibitor library screening) ([18]; 10μΜ): 1.8
- cell viability (kinase inhibitor library screening) ([19]; 1μΜ): 11.1
- cell viability (kinase inhibitor library screening) ([19]; 10μΜ): 6.5
- cell viability (kinase inhibitor library screening) (A375 cells (parental) [20]; 1μΜ): 25.2
- cell viability (kinase inhibitor library screening) (A375 cells (parental) [20]; 10μΜ): 4.9
- cell viability (kinase inhibitor library screening) ([21]; 1μΜ): 27.8
- cell viability (kinase inhibitor library screening) ([21]; 10μΜ): 24.0
- inhibitory CDK1 (cdc2) phosphorylation level (in words) [22]: reduced levels of inhibitory CDK1 (cdc2) phosphorylation
- effect on healthy cells, cell viability (in words) ([5]; fibroblasts (NHDF)): very modest effects
- effect on healthy cells, cell viability (in words) ([23]; melanocytes (NHEM)): very modest effects

Compound: CO[C@@H](C(=O)N1Cc2n[nH]c(NC(=O)c3ccc(N4CCN(C)CC4)cc3)c2C1)c1ccccc1 [Danusertib]
- long-term cell growth under drug until day 76 (in words) ([1]; drugs replenished every 72 h, indicated concentrations): inconsistent
- IC50 (A375 cells (parental) [2]): 328 nM
- IC50 [3]: 295 nM
- IC50 [4]: 257 nM
- synergistic effects with the BRAF inhibitors Vemurafenib and/or Dabrafenib (in words) (A375 cells): clear synergistic effects
- IC50 [5]: 1170 nM
- IC50 ([23]; Homo sapiens, Melanocyte, read-out: Half-maximal inhibitory concentration (IC50), NHEM Mean): 370 nM
- apoptosis and migration of melanoma cell lines (in words) (melanoma cell lines): induced apoptosis and inhibited migration
